From ChEMBL document CHEMBL1150308, “Cytotoxic constituents from Brazilian red propolis and their structure-activity relationship” (Bioorg Med Chem, 2008)

Assays:
Assay type in all cases: functional, cell-based
[1] = Cytotoxicity against mouse colon 26-L5 cells after 72 hrs by MTT assay
[2] = Cytotoxicity against mouse B16-BL6 cells after 72 hrs by MTT assay; conditions: B16-BL6, 72 h
A549 = experiment: Cytotoxicity against human A549 cells after 72 hrs by MTT assay; conditions: A549, 72 h
HeLa = experiment: Cytotoxicity against human HeLa cells after 72 hrs by MTT assay
[3] = Cytotoxicity against mouse LLC cells after 72 hrs by MTT assay; conditions: Lewis lung carcinoma
HT-1080 = experiment: Cytotoxicity against human HT1080 cells after 72 hrs by MTT assay; conditions: HT-1080, 72 h

Row | Structure (SMILES) | IC50 [1] [µM] | IC50 [2] [µM] | IC50 (A549) [µM] | IC50 (HeLa) [µM] | IC50 [3] [µM] | IC50 (HT-1080) [µM]
1 | COc1cc(O)ccc1[C@H]1COc2cc(O)ccc2C1 | 49.8 | 33.6 | > 100 | 77.1 | > 100 | 75.3
2 | O=C1c2ccc(O)cc2O[C@H](c2ccccc2)[C@H]1O | > 100 | > 100 | > 100 | > 100 | > 100 | > 100
3 | O=C(c1ccc(O)cc1O)[C@@H](O)Cc1ccc(O)cc1 | > 100 | > 100 | > 100 | > 100 | > 100 | > 100
4 | C=C[C@@H](c1ccccc1)c1cc(O)c(OC)cc1OC | 60.3 | 53.8 | 73.7 | 60.1 | > 100 | > 100
5 | COc1ccc([C@H]2COc3cc(O)ccc3C2)c(O)c1 | 67 | 57.4 | > 100 | 72.6 | 92.3 | > 100
6 | COc1ccc([C@H]2COc3cc(O)ccc3C2=O)c(O)c1 | 67 | > 100 | > 100 | > 100 | > 100 | > 100
7 | COc1ccc2c(c1O)O[C@@H]1c3ccc(O)cc3OC[C@H]21 | 68.1 | 47.5 | > 100 | 61.2 | 57.2 | > 100
8 | COc1ccc2c(C)c(-c3ccc(O)cc3O)oc2c1 | 27.8 | 44.8 | 42.6 | 36.1 | 34.4 | 38.7
9 | COc1ccc2c(c1)O[C@H]1c3ccc(O)c(O)c3OC[C@@H]21 | 54.1 | > 100 | > 100 | > 100 | > 100 | > 100
10 | COc1cc(O)ccc1C(=O)/C=C/c1ccc(O)cc1 | 12.3 | 56.3 | 62.1 | 67.9 | 69.1 | 51.2
11 | COc1ccc([C@H]2COc3cc(O)ccc3C2=O)c(OC)c1O | > 100 | > 100 | > 100 | > 100 | > 100 | > 100
12 | O=C1c2ccc(O)cc2OC1(O)Cc1ccc(O)cc1 (configuration not stated) | 25.9 | > 100 | > 100 | > 100 | > 100 | > 100
13 | COc1cc2c(cc1O)O[C@H](c1ccccc1)[C@@H](O)C2=O | > 100 | > 100 | > 100 | > 100 | > 100 | > 100
14 | COc1ccc([C@H]2COc3cc(OC)ccc3C2)c(O)c1 | 29.8 | 24.1 | 46 | 44.3 | 24 | 50.1
15 | CCO[C@@]12COc3cc(O)ccc3[C@@H]1Oc1cc(OC)ccc12 | > 100 | > 100 | > 100 | > 100 | > 100 | > 100
16 | O=C1C[C@@H](c2ccccc2)Oc2cc(O)c(O)c(O)c21 | 53.4 | > 100 | > 100 | > 100 | > 100 | > 100
17 | COc1cc2c(cc1O)O[C@H](c1ccccc1)CC2=O | 5.9 | 6.7 | 8.6 | 5.6 | 9.3 | 7.9
18 | COc1ccc(-c2coc3cc(O)cc(O)c3c2=O)c(O)c1 | 93.6 | > 100 | > 100 | > 100 | > 100 | > 100
19 | COc1ccc([C@H]2COc3cc(O)cc(O)c3C2=O)c(O)c1 | 71.3 | > 100 | > 100 | > 100 | > 100 | > 100
20 | COc1ccc2c(c1)O[C@H]1c3ccc(O)c(OC)c3OC[C@@H]21 | 29.4 | > 100 | 97.3 | 47.1 | 97.6 | 96.3
21 | COc1ccc2c(c1)O[C@@H]1c3ccc(O)cc3OC[C@H]21 | 11.3 | 42.4 | 39.5 | 23.4 | 17.2 | 28.4

Row | Structure (SMILES) | IC50 [1] [µM] | IC50 [2] [µM] | IC50 (A549) [µM] | IC50 (HeLa) [µM] | IC50 [3] [µM] | IC50 (HT-1080) [µM]
22 | O=C(/C=C/c1ccccc1)c1ccc(O)cc1O [2',4'-DIHYDROXYCHALCONE] | 7.4 | 44.3 | 41.6 | 23.1 | 39.5 | 34
23 | COc1ccc([C@H]2OC[C@H]3[C@@H]2CO[C@@H]3c2ccc(OC)c(OC)c2)cc1OC [(+)-EUDESMIN] | > 100 | > 100 | > 100 | > 100 | > 100 | > 100
24 | COc1cc([C@@H]2OC[C@@H]3[C@H]2CO[C@H]3c2ccc(O)c(OC)c2)ccc1O [(+)-PINORESINOL] | > 100 | > 100 | > 100 | 92.5 | > 100 | > 100
25 | COc1c(O)cc2oc(-c3ccccc3)c(O)c(=O)c2c1O [ALNUSIN] | > 100 | > 100 | > 100 | > 100 | > 100 | > 100
26 | COc1c(O)cc2c(c1O)C(=O)[C@H](O)[C@@H](c1ccccc1)O2 [ALNUSTINOL] | > 100 | > 100 | > 100 | > 100 | > 100 | > 100
27 | COc1ccc(-c2coc3cc(O)cc(O)c3c2=O)cc1 [BIOCHANIN] | 98 | > 100 | > 100 | > 100 | > 100 | > 100
28 | COc1ccc(-c2coc3cc(O)ccc3c2=O)cc1O [CALYCOSIN] | 98 | > 100 | > 100 | > 100 | > 100 | > 100
29 | O=c1c(-c2ccc(O)cc2)coc2cc(O)ccc12 [DAIDZEIN] | 88.1 | > 100 | > 100 | > 100 | > 100 | > 100
30 | COc1c(O)cc2c(c1O)C(=O)C[C@@H](c1ccccc1)O2 [DIHYDROOROXYLIN A] | 49 | 72.6 | 38 | 39.3 | 82.7 | 47.6
31 | COc1cccc2c1C(=O)c1c(O)c3c(c(O)c1C2=O)C[C@@](O)(C(=O)CO)C[C@@H]3O[C@H]1C[C@H](N)[C@H](O)[C@H](C)O1 [DOXORUBICIN] | 0.33 | 8.05 | 7.88 | 0.68 | 8.04 | 9.32
32 | O=c1[nH]cc(F)c(=O)[nH]1 [FLUOROURACIL] | 0.46 | 5.78 | 9.19 | 0.77 | 2.59 | 9.45
33 | COc1ccc(-c2coc3cc(O)ccc3c2=O)cc1 [FORMONONETIN] | 83.6 | > 100 | > 100 | > 100 | > 100 | > 100
34 | O=C1c2ccc(O)cc2O[C@H](c2ccc(O)cc2)[C@H]1O [GARBANZOL] | > 100 | > 100 | > 100 | > 100 | > 100 | > 100
35 | O=C(/C=C/c1ccc(O)cc1)c1ccc(O)cc1O [ISOLIQUIRITIGENIN] | 21.8 | 80.5 | 98.9 | 82.6 | 84 | 76.7
36 | O=C1C[C@@H](c2ccc(O)cc2)Oc2cc(O)ccc21 [LIQUIRTIGENIN] | 56.6 | 97.7 | > 100 | > 100 | > 100 | > 100
37 | COc1ccc([C@H]2COc3cc(O)ccc3C2)c(OC)c1O [MUCRONULATOL] | 7.3 | 30.4 | 9.9 | 24.2 | 8.4 | 18.2
38 | O=C1C[C@@H](c2ccc(O)cc2)Oc2cc(O)cc(O)c21 [NARINGENIN] | > 100 | > 100 | > 100 | > 100 | > 100 | > 100
39 | COc1ccc(-c2coc3cc(O)cc(O)c3c2=O)cc1O [PRATENSEIN] | > 100 | > 100 | > 100 | > 100 | > 100 | > 100
40 | COc1cc2c(cc1OC)[C@@H]1COc3cc(O)ccc3[C@@H]1O2 [SECUNDIFLOROL I] | 44.5 | 64.9 | > 100 | 84.3 | > 100 | > 100
41 | COc1cc([C@H]2OC[C@H]3[C@@H]2CO[C@@H]3c2cc(OC)c(O)c(OC)c2)cc(OC)c1O [SYRINGARESINOL] | > 100 | > 100 | > 100 | > 100 | > 100 | > 100
42 | COc1ccc(-c2coc3cc(O)ccc3c2=O)c(O)c1 [XENOGNOSIN B] | 49.3 | 34.1 | > 100 | 69.8 | > 100 | > 100
